The target in series [1] is T1, 0N4R Tau fibrils (Homo sapiens, UniProt P10636).
T1 construct: made in house
The series can be described thus: ^3H-THK5117 competition binding to tau fibrils in vitro. Particulars: for Selectivity for tau relative to Aβ: calculated from [^3H]-THK5117 tau and [^3H]-AZD2184 Aβ assays. Here is the method:
Preparation of recombinant 0N4R Tau fibrils was performed as previously described in Morozova, O. A., Biochemistry (2013), Vol., 52(40), pages 6960-6967. Competition binding experiments to 0N4R Tau fibrils were performed by incubating increasing concentrations [10^−10-10^−6 M] of the Example compounds of the invention, or the known tau specific ligand PBB3 (PBB3 was synthesized as previously described in M. Maruyama, et al, Neuron 2013, 79, 1094-1108) or MK6240 (Novandi Chemistry AB), in the presence of 3 nM of the known tau ligand [^3H]-THK5117 (Novandi Chemistry) and 0.2 mM 0N4R tau fibrils in binding buffer (50 mM Tris-HCl, pH 7.4, 0.1% BSA) for 1 h in the dark, and at 22° C. The incubation was terminated by filtration through a Whatman GF/B glass filter (Whatman International, Kent, UK) using a Brandel cell harvester. The filter was then washed rapidly four times with 3 mL of ice-cold wash buffer (5 mM Tris-HCl, 0.25 mM NaCl, 5% EtOH), and equilibrated for 1 h in scintillation vials containing 5 mL of Ultima Gold scintillation fluid before being analysed using a Liquid Scintillation Analyzer.
The results are shown in Table 2 in the column labeled “Tau IC50”.
Relative selectivity for tau compared to Aβ for the exemplified compounds was calculated using the results for the [^3H]-THK5117 tau and [^3H]-AZD2184 Aβ assays described above. The calculated results are shown in Table 2 in the column labeled “Selectivity for tau relative to Aβ”.

For series [2], the target named is T1, 0N4R Tau fibrils. The series can be described thus: In vitro competitive binding to 0N4R tau fibrils in the presence of [^3H]-Example Compound 68 (FIG. 1).
A further series deals with T2, Aβ(1-42) amyloid fibrils (Homo sapiens, UniProt P05067).
T2 construct: Aβ(1-42) amyloid fibrils
In words: ^3H-AZD2184 competition binding to Aβ(1-42) fibrils in vitro. To be noted: [^3H]-AZD2184, Aβ(1-42) amyloid fibrils; average if run more than once. Here is the method: Competition binding experiments to Aβ(1-42) amyloid fibrils were performed as previously described in Jureus, A., et al, Journal of Neurochemistry (2010), Vol. 114, pages 784-794 for the Example compounds of the invention indicated in Table 2, or the known tau specific ligand PBB3 (PBB3 was synthesized as previously described in M. Maruyama, et al, Neuron 2013, 79, 1094-1108).
The results are shown in Table 2 in the column labeled “Aβ IC50”.

A short description of series [3]: Rat brain cassette exposure study. The format is in vivo, Sprague Dawley rat. To be noted: intravenous cassette dosing. On the procedure: The in vivo pharmacokinetic characteristics of the example compounds of the invention were compared directly with the known beta-amyloid specific ligand AZD2184 (Johnson, A. E., et al, Journal of Neurochemistry (2009), Vol. 108, pages 1177-1186). Rat brain exposure to three compounds of the invention and AZD2184 was measured by intravenous cassette dosing three test compound: Example Compound 43, Example Compound 47 and Example Compound 48; and AZD2184 (Novandi Chemistry) (concentration of 0.25 μmol/mL each) using the procedure previously described in Johnson, A. E., et al, Journal of Neurochemistry (2009), Vol. 108, pages 1177-1186. 6 male Sprague Dawley rat were used in the experiments, three rats per time point (2 min and 30 min).

[4] abbreviates: 3 nM [^3H]-THK5117, recombinant 0N4R tau fibrils, average if run more than once.

As a reminder, the IC50 is the concentration at which inhibition is half-maximal.

Molecules are shown by their SMILES.

T1 sequence (P10636 1-383 isoform P10636-6): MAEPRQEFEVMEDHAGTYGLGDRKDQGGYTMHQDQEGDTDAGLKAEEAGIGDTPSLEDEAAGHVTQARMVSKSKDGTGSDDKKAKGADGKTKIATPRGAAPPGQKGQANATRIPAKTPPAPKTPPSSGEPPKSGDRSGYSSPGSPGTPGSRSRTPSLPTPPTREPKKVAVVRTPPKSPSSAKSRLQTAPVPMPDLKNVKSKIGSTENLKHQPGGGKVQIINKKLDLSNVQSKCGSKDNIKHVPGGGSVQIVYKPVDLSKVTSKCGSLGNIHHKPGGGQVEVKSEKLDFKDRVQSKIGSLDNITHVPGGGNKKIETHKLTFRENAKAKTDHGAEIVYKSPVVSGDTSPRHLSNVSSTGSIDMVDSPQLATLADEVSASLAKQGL
T2 sequence (P05067 672-713): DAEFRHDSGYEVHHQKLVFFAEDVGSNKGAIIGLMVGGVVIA

On to `Nc1c(F)ccc2cnc(-n3ccc4ccncc43)cc12` [MK-6240, reference compound], for which, at 0N4R Tau fibrils [1] (setting [4]), the IC50 is over 1000 nM and the “Tau IC50” value is “inactive”. At 0N4R Tau fibrils [2], the “tau binding site shared (competition with [^3H]-Example Compound 68)” value (“tau binding site shared” below) is listed as “does not share the same binding site”.

With `COc1ccc2[nH]c(-c3ccc(N4CCC(C(N)=O)CC4)nc3F)cc2c1` [Example Compound 68, 1-[6-Fluoro-5-(5-methoxy-1H-indol-2-yl)pyridin-2-yl]piperidine-4-carboxamide], the “tau binding site shared” value at 0N4R Tau fibrils [2] is listed as “share the same binding site”.

On to `Oc1ccc2nc(-c3cnc(N4CCC(CCF)CC4)nc3)sc2c1` [Compound 39], for which the values for the IC50 at Aβ(1-42) amyloid fibrils and at 0N4R Tau fibrils [1] (setting [4]) were 50 nM and 1.5 nM, respectively. In addition, the “Selectivity for tau relative to Aβ” value on 0N4R Tau fibrils [1] was 33.

Regarding `CNc1ccc(/C=C/C=C/c2nc3ccc(O)cc3s2)cn1` [PBB3, reference compound], at 0N4R Tau fibrils [1], the “Selectivity for tau relative to Aβ” value was 4. Further, on 0N4R Tau fibrils [2], the “tau binding site shared” value is on record as “share the same binding site”.

As for `COc1ccc2nc(-c3ccc(N4CCC(CCF)CC4)nc3)sc2c1` [Compound 24], the results for the IC50 at Aβ(1-42) amyloid fibrils and on 0N4R Tau fibrils [1] (setting [4]) were 1 nM and 2 nM, respectively. Further, the “Selectivity for tau relative to Aβ” value at 0N4R Tau fibrils [1] was 0.5.

On to `OCCC1CCN(c2ccc(-c3nc4ccc(O)cc4s3)cn2)CC1` [Compound 36], for which the IC50 on Aβ(1-42) amyloid fibrils was determined as 91 nM; on 0N4R Tau fibrils [1] (setting [4]), 3 nM. Besides, on 0N4R Tau fibrils [1], the “Selectivity for tau relative to Aβ” value was 30.

Regarding `COc1ccc2[nH]c(-c3ccc(N4CCC(C(N)=O)CC4)nc3)cc2c1` [Compound 71, 1-[5-(5-Methoxy-1H-indol-2-yl)pyridin-2-yl]piperidine-4-carboxamide], the IC50 on Aβ(1-42) amyloid fibrils stood at 114 nM; on 0N4R Tau fibrils [1] (setting [4]) it was 16 nM. Moreover, at 0N4R Tau fibrils [1], the “Selectivity for tau relative to Aβ” value is listed as 7.1.

As for `OCCC1CCN(c2ccc(-c3cc4ccccc4o3)cn2)CC1` [Compound 27], the IC50 at Aβ(1-42) amyloid fibrils turned out to be 34 nM; on 0N4R Tau fibrils [1] (setting [4]), 7 nM. The “Selectivity for tau relative to Aβ” value on 0N4R Tau fibrils [1] is given as 4.9.

Regarding `COc1ccc2[nH]c(-c3ccc(N4CCC(CO)CC4)nc3F)cc2c1` [Example Compound 47, {1-[6-Fluoro-5-(5-methoxy-1H-indol-2-yl)pyridin-2-yl]piperidin-4-yl}methanol], the “clearance from normal rat brain tissue” value in series [3] (2 min and 30 min) is on record as “rapidly cleared”. Further, the half-life in series [3] (male, Sprague Dawley, rat, brain, samples at 2 min and 30 min, read-out: calculated half-life (t1/2) in rat brain tissue) was 15.8 min.

Turning to `COc1ccc2nc(-c3cnc(N4CCC(CCOCCOCCOCCF)CC4)nc3)sc2c1` [Compound 26], the values for the IC50 on Aβ(1-42) amyloid fibrils and on 0N4R Tau fibrils [1] (setting [4]) were 8 nM and 5 nM, respectively. Also, the “Selectivity for tau relative to Aβ” value at 0N4R Tau fibrils [1] is listed as 1.6.

Take `OCC1CCN(c2ccc(-c3cc4ccccc4o3)c(F)n2)CC1` [Compound 45]: the IC50 on Aβ(1-42) amyloid fibrils came out at 42 nM; at 0N4R Tau fibrils [1] (setting [4]), 9 nM. The “Selectivity for tau relative to Aβ” value on 0N4R Tau fibrils [1] is listed as 4.7.

As to `COc1ccc2[nH]c(-c3ccc(N4CCC(C(N)=O)CC4)nc3F)cc2c1` [Compound 68], the IC50 came to 72 nM on Aβ(1-42) amyloid fibrils and 7 nM at 0N4R Tau fibrils [1] (setting [4]). For the same compound, on 0N4R Tau fibrils [1], the “Selectivity for tau relative to Aβ” value was 10.

For `OCC1CCN(c2ccc(-c3nc4ccc(OCCF)cc4o3)cn2)CC1` [Compound 62, (1-{5-[6-(2-Fluoroethoxy)-1,3-benzoxazol-2-yl]pyridin-2-yl}piperidin-4-yl)methanol], the IC50 on Aβ(1-42) amyloid fibrils was 9 nM; on 0N4R Tau fibrils [1] (setting [4]), 22 nM. Further, the “Selectivity for tau relative to Aβ” value on 0N4R Tau fibrils [1] is given as 0.4.

Consider `COc1ccc2[nH]c(-c3ccc(N4CCC(CO)CC4)nc3F)cc2c1` [Compound 47], for which the IC50 at Aβ(1-42) amyloid fibrils was determined as 33 nM; on 0N4R Tau fibrils [1] (setting [4]) it was 2 nM. Further, the “Selectivity for tau relative to Aβ” value on 0N4R Tau fibrils [1] is on record as 17.

For the compound `NC(=O)c1ccc2nc(-c3cnc(N4CCC(CCF)CC4)nc3)sc2c1` [Compound 43], the IC50 on Aβ(1-42) amyloid fibrils worked out at 72 nM; on 0N4R Tau fibrils [1] (setting [4]) it was 4 nM. In addition, the “Selectivity for tau relative to Aβ” value at 0N4R Tau fibrils [1] is recorded as 18.

With `OCC1CCN(c2ccc(-c3cc4cc(O)ccc4[nH]3)c(F)n2)CC1` [Compound 48], the IC50 was determined as 187 nM at Aβ(1-42) amyloid fibrils and 5 nM at 0N4R Tau fibrils [1] (setting [4]). For the same compound, on 0N4R Tau fibrils [1], the “Selectivity for tau relative to Aβ” value is recorded as 37.

As to `Oc1ccc2[nH]c(-c3cnc(N4CCC(CF)CC4)nc3)cc2c1` [Compound 69, 2-{2-[4-(Fluoromethyl)piperidin-1-yl]pyrimidin-5-yl}-1H-indol-5-ol], the IC50 on Aβ(1-42) amyloid fibrils is 169 nM; on 0N4R Tau fibrils [1] (setting [4]) it was 10 nM. The “Selectivity for tau relative to Aβ” value on 0N4R Tau fibrils [1] is 17.

As for `FCCCCOC1CCN(c2ccc(-c3nc4ccccc4s3)cn2)CC1` [Compound 5], the IC50 at Aβ(1-42) amyloid fibrils turned out to be 24 nM; at 0N4R Tau fibrils [1] (setting [4]), 5 nM. Further, the “Selectivity for tau relative to Aβ” value at 0N4R Tau fibrils [1] is given as 4.8.

With `OCC1CCN(c2ncc(-c3nc4ccc(O)cc4s3)cn2)CC1` [Compound 57], the figures for the half-inhibitory concentration (IC50) at Aβ(1-42) amyloid fibrils and on 0N4R Tau fibrils [1] (setting [4]) were 302 nM and 12 nM, respectively. For the same compound, at 0N4R Tau fibrils [1], the “Selectivity for tau relative to Aβ” value was 25.

For the compound `OCC1CCN(c2ncc(-c3nc4ccc(OCCF)cc4s3)cn2)CC1` [Compound 58], the IC50 on Aβ(1-42) amyloid fibrils was found to be 37 nM; at 0N4R Tau fibrils [1] (setting [4]), 6 nM. Further, on 0N4R Tau fibrils [1], the “Selectivity for tau relative to Aβ” value was 6.2.

For the compound `OCC1CCN(c2ncc(-c3cc4cc(OCCF)ccc4[nH]3)cn2)CC1` [Compound 72, (1-{5-[5-(2-Fluoroethoxy)-1H-indol-2-yl]pyrimidin-2-yl}piperidin-4-yl)methanol], the IC50 was 42 nM on Aβ(1-42) amyloid fibrils and 7 nM on 0N4R Tau fibrils [1] (setting [4]). The “Selectivity for tau relative to Aβ” value at 0N4R Tau fibrils [1] is 6.

Consider `FCCOCCOCCOC1CCN(c2ccc(-c3nc4ccccc4s3)cn2)CC1` [Compound 6], for which the results for the IC50 on Aβ(1-42) amyloid fibrils and on 0N4R Tau fibrils [1] (setting [4]) were 3 nM and 16 nM, respectively. Moreover, the “Selectivity for tau relative to Aβ” value at 0N4R Tau fibrils [1] is 0.2.

Take `FCCOCCOCCOC1CCN(c2ncc(-c3cc4ccccc4o3)cn2)CC1` [Compound 33]: the IC50 on Aβ(1-42) amyloid fibrils came out at 6 nM; at 0N4R Tau fibrils [1] (setting [4]) it was 28 nM. Further, the “Selectivity for tau relative to Aβ” value at 0N4R Tau fibrils [1] is 0.2.

For `OC1CCN(c2ncc(-c3cc4ccccc4o3)cn2)CC1` [Compound 32], the values for the IC50 at Aβ(1-42) amyloid fibrils and on 0N4R Tau fibrils [1] (setting [4]) were 66 nM and 43 nM, respectively. The “Selectivity for tau relative to Aβ” value on 0N4R Tau fibrils [1] is listed as 1.5.

With `FCCC1CCN(c2ncc(-c3cn4ccccc4n3)cn2)CC1` [Compound 52], the results for the IC50 on Aβ(1-42) amyloid fibrils and at 0N4R Tau fibrils [1] (setting [4]) were 84 nM and 49 nM, respectively. At 0N4R Tau fibrils [1], the “Selectivity for tau relative to Aβ” value was 1.7.

Regarding `N#Cc1ccc2nc(-c3cnc(N4CCC(CCO)CC4)nc3)sc2c1` [Compound 40], the IC50 at Aβ(1-42) amyloid fibrils is 70 nM; at 0N4R Tau fibrils [1] (setting [4]), 6 nM. Moreover, the “Selectivity for tau relative to Aβ” value at 0N4R Tau fibrils [1] is reported as 12.

On to `OCCC1CCN(c2ccc(-c3nc4ccccc4s3)cn2)CC1` [Compound 7], for which the half-inhibitory concentration (IC50) worked out at 15 nM on Aβ(1-42) amyloid fibrils and 7 nM on 0N4R Tau fibrils [1] (setting [4]). In addition, the “Selectivity for tau relative to Aβ” value at 0N4R Tau fibrils [1] is on record as 2.1.

Regarding `FCCC1CCN(c2ncc(-c3cc4ccccc4o3)cn2)CC1` [Compound 30], the IC50 on Aβ(1-42) amyloid fibrils came to 25 nM; on 0N4R Tau fibrils [1] (setting [4]) it was 12 nM. At 0N4R Tau fibrils [1], the “Selectivity for tau relative to Aβ” value was 2.1.

On to `COc1ccc2nc(-c3ccc(N4CCC(CCO)CC4)nc3)sc2c1` [Compound 21], for which the IC50 at Aβ(1-42) amyloid fibrils was 70 nM; at 0N4R Tau fibrils [1] (setting [4]) it was 5 nM. In addition, the “Selectivity for tau relative to Aβ” value on 0N4R Tau fibrils [1] is reported as 14.

The values are drawn from patent US12636385B2, “Selective ligands for tau aggregates” (Sentonix, Inc., priority 2018, dated 2026).
